Experiments:
COX-2 = target: T1, COX-2 (Homo sapiens, UniProt P35354); experiment: Human whole blood assay, COX-2 inhibition (PGE2 ELISA after LPS); assay type: cell-based; conditions: 0.25 μM, LPS 24 h
T1 construct: incubation of human blood with lipopolysaccharide (LPS), which induces COX-2 production in the blood; endogenous in cells; host or cells: fresh human whole blood from volunteers, treated with aspirin and then LPS
T1 sequence (P35354 18-604): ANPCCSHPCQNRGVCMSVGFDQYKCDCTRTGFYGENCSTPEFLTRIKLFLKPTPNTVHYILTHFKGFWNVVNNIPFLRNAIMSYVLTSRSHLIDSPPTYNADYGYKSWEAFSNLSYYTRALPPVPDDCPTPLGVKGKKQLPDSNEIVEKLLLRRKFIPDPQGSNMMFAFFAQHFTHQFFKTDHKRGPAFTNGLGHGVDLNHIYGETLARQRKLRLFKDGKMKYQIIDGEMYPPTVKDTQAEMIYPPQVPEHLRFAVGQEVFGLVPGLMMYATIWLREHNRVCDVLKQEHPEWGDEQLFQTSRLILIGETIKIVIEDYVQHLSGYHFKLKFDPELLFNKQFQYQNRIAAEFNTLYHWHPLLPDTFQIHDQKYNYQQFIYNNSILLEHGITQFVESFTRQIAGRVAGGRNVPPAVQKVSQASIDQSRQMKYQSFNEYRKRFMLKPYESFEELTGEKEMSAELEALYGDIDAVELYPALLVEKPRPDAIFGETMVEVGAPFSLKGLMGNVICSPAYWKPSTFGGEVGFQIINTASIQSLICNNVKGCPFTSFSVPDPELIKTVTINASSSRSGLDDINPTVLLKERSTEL
Method: In Vivo Evaluation of Cyclooxygenase-2 (COX-2) Inhibition Activity
The COX-2 inhibition activities of the compounds illustrated in the examples are determined by the following method.
Human whole blood provides a protein and cell rich milieu appropriate for the study of biochemical efficacy of anti-inflammatory compounds such as selective COX-2 inhibitors. […] This is correlating with the observation that COX-2 inhibitors have no effect on prostaglandin E2 (PGE2) production in normal blood. These inhibitors are active only after incubation of human blood with lipopolysaccharide (LPS), which induces COX-2 production in the blood.
Fresh blood is collected in tubes containing potassium EDTA by vein puncture from make volunteers. The subjects should have no apparent inflammatory conditions and not taken NSAIDs for at least 7 days prior to blood collection. Blood is treated with aspirin in vitro (10 μg/ml, at time zero) to inactivate COX-1, and then with LPS (10 μg/ml) along with test agents or vehicle. The blood is incubated for 24 h at 37° C., after which the tubes are centrifuged, the plasma is separated and stored at −80° C. (J. Pharmacol. Exp. Ther, 271, 1705, 1994; Proc. Natl. Acad. Sci. USA., 96, 7563, 1999). The plasma is assayed for PGE2 using Cayman ELISA kit as per the procedure outlined by the manufacturer (Cayman Chemicals, Ann Arbor, USA).

TNF-α = TNF-α production in LPS-stimulated human whole blood; assay type: cell-based; conditions: LPS 4 h
Method: Tumor Necrosis Factor Alpha (TNF-α)
This assay determines the effect of test compounds on the production of TNF-α in human whole blood. TNF-α assay is carried out as described by Armin hatzelmann and Christian Schudt (J Pharm Exp Ther 297, 261, 2001). Compounds are tested for their ability to inhibit the activity of TNF-α in human whole blood. The test compounds are pre-incubated for 15 minutes at 37° C. and then stimulated with Lipopolysaccharide (Salmonella abortus equi, 1 μg/ml) for 4 h at 37° C. in 5% CO2. The levels of TNF-α are estimated using Enzyme linked Immunosorbent assay performed in a 96 well format as per the procedure of the manufacturer (Cayman Chemical, Ann Arbor, USA).

Structure (SMILES)	melting point [°C]	also measured
COc1cc(-n2c(-c3ccc(SC)cc3)nc(SC)c(C#N)c2=O)cc(OC)c1OC [Example 13, 5-cyano-1-(3,4,5-trimethoxyphenyl)-4-(methylthio)-2-[4-(methylthio)phenyl]-6-oxo-1,6-dihydropyrimidine]	192 to 195	inhibition at 0.25 µM (COX-2): 33.5%
CCc1ccc(-n2c(-c3ccc(SC)cc3)nc(SC)c(C#N)c2=O)cc1 [Example 14, 5-cyano-1-(4-ethylphenyl)-4-(methylthio)-2-[4-(methylthio)phenyl]-6-oxo-1,6-dihydropyrimidine]	223 to 225	inhibition at 0.25 µM (COX-2): 28.2%
CSc1ccc(-c2nc(SC)c(C#N)c(=O)n2-c2ccc(Br)cc2)cc1 [Example 15, 1-(4-bromophenyl)-5-cyano-4-(methylthio)-2-[4-(methylthio)phenyl]-6-oxo-1,6-dihydropyrimidine]	213 to 215	inhibition at 0.1 µM (TNF-α): 18.4%
CSc1ccc(-c2nc(SC)c(C#N)c(=O)n2-c2ccc(C)cc2C)cc1 [Example 19, 5-cyano-1-(2,4-dimethylphenyl)-4-(methylthio)-2-[4-(methylthio)phenyl]-6-oxo-1,6-dihydropyrimidine]	203 to 205	
CSc1ccc(-n2c(-c3ccc(C)cc3)nc(SC)c(C#N)c2=O)cc1 [Example 20, 5-cyano-2-(4-methylphenyl)-4-(methylthio)-1-[4-(methylthio)phenyl]-6-oxo-1,6-dihydropyrimidine]	230 to 233	inhibition at 0.25 µM (COX-2): 7.67%; inhibition at 1 µM (TNF-α): 61.4%
CSc1nc(-c2ccccc2)n(-c2ccc(C)cc2)c(=O)c1C#N [Example 23, 5-cyano-1-(4-methylphenyl)-4-(methylthio)-6-oxo-2-phenyl-1,6-dihydropyrimidine]	258 to 260	
CCCCc1ccc(-n2c(-c3ccc(SC)cc3)nc(SC)c(C#N)c2=O)cc1 [Example 24, 1-(4-n-butylphenyl)-5-cyano-4-(methylthio)-2-[4-(methylthio)phenyl]-6-oxo-1,6-dihydropyrimidine]	138 to 141	
CSc1nc(-c2ccncc2)n(-c2ccc(F)cc2)c(=O)c1C#N [Example 25, 5-cyano-1-(4-fluorophenyl)-4-(methylthio)-6-oxo-2-pyridin-4-yl-1,6-dihydropyrimidine]	301 to 303	inhibition at 1 µM (TNF-α): 59.6%
COc1ccc(-n2c(-c3ccccn3)nc(SC)c(C#N)c2=O)cc1 [Example 31, 5-cyano-4-(methylthio)-1-(4-methoxyphenyl)-6-oxo-2-pyridin-2-yl-1,6-dihydropyrimidine]	246 to 253	inhibition at 0.1 µM (TNF-α): 20.2%
CSc1nc(-c2ccccn2)n(-c2ccc(C)c(C)c2)c(=O)c1C#N [Example 32, 5-cyano-4-(methylthio)-1-(3,4-dimethylphenyl)-6-oxo-2-pyridin-2-yl-1,6-dihydropyrimidine]	218 to 223	inhibition at 0.1 µM (TNF-α): 17.9%
CCc1ccc(-n2c(-c3ccccn3)nc(SC)c(C#N)c2=O)cc1 [Example 33, 5-cyano-4-(methylthio)-1-(4-ethylphenyl)-6-oxo-2-pyridin-2-yl-1,6-dihydropyrimidine]	172 to 175	
CSc1nc(-c2ccccn2)n(-c2ccc(C)cc2)c(=O)c1C#N [Example 34, 5-cyano-4-(methylthio)-1-(4-methylphenyl)-6-oxo-2-pyridin-2-yl-1,6-dihydropyrimidine]	247 to 248	
CCOc1ccc(-n2c(-c3ccncc3)nc(SC)c(C#N)c2=O)cc1 [Example 35, 5-cyano-4-(methylthio)-1-(4-ethoxyphenyl)-6-oxo-2-pyridin-4-yl-1,6-dihydropyrimidine]	201 to 204	
CSc1nc(-c2ccncc2)n(-c2ccc(C)cc2)c(=O)c1C#N [Example 36, 5-cyano-4-(methylthio)-1-(4-methylphenyl)-6-oxo-2-pyridin-4-yl-1,6-dihydropyrimidine]	> 250	
CSc1nc(-c2ccncc2)n(-c2ccc(C(C)C)cc2)c(=O)c1C#N [Example 37, 5-cyano-4-(methylthio)-1-(4-isopropylphenyl)-6-oxo-2-pyridin-4-yl-1,6-dihydropyrimidine]	173 to 175	
CCc1ccc(-n2c(-c3cccnc3)nc(SC)c(C#N)c2=O)cc1 [Example 38, 5-cyano-4-(methylthio)-1-(4-ethylphenyl)-6-oxo-2-pyridin-3-yl-1,6-dihydropyrimidine]	207 to 209	
CSc1nc(-c2cccnc2)n(-c2ccc(C)c(C)c2)c(=O)c1C#N [Example 39, 5-cyano-4-(methylthio)-1-(3,4-dimethylphenyl)-6-oxo-2-pyridin-3-yl-1,6-dihydropyrimidine]	> 250	
COc1ccc(-n2c(-c3cccnc3)nc(SC)c(C#N)c2=O)cc1 [Example 40, 5-cyano-4-(methylthio)-1-(4-methoxyphenyl)-6-oxo-2-pyridin-3-yl-1,6-dihydropyrimidine]	230 to 233	
Cc1ccc(-n2c(-c3ccc(S(C)(=O)=O)cc3)nc(S(C)(=O)=O)c(C(N)=O)c2=O)cc1 [Example 44, 5-carboxamido-1-(4-methylphenyl)-4-(methylsulfonyl)-2-[4-(methylsulfonyl)phenyl]-6-oxo-1,6-dihydropyrimidine]	260 to 262	
Cc1ccc(-n2c(-c3ccc(S(C)(=O)=O)cc3)nc(N3CCNCC3)c(C(N)=O)c2=O)cc1 [Example 45, 5-carboxamido-1-(4-methylphenyl)-2-[4-(methylsulfonyl)phenyl]-6-oxo-4-piperazin-1-yl-1,6-dihydropyrimidine]	269 to 275	
CNc1nc(-c2ccc(S(C)(=O)=O)cc2)n(-c2ccc(C)cc2)c(=O)c1C(N)=O [Example 46, 5-carboxamido-4-(methylamino)-1-(4-methylphenyl)-2-[4-(methylsulfonyl)phenyl]-6-oxo-1,6-dihydropyrimidine]	> 300	
Cc1ccc(-n2c(-c3ccc(S(C)(=O)=O)cc3)nc(N3CCOCC3)c(C(N)=O)c2=O)cc1 [Example 47, 5-carboxamido-1-(4-methylphenyl)-2-[4-(methylsulfonyl)phenyl]-4-morpholin-4-yl-6-oxo-1,6-dihydropyrimidine]	226 to 228	
CS(=O)(=O)c1ccc(-n2c(-c3ccc(F)cc3)nc(S(C)(=O)=O)c(C(N)=O)c2=O)cc1 [Example 48, 5-carboxamido-2-(4-fluorophenyl)-4-(methylsulfonyl)-1-[4-(methylsulfonyl)phenyl]-6-oxo-1,6-dihydropyrimidine]	237 to 241	
Cc1ccc(-n2c(-c3ccc(S(C)(=O)=O)cc3)nc(S(C)(=O)=O)c(C(N)=O)c2=O)cc1C [Example 51, 5-carboxamido-1-(3,4-dimethylphenyl)-4-(methylsulfonyl)-2-[4-(methylsulfonyl)phenyl]-6-oxo-1,6-dihydropyrimidine]	245 to 248	
CS(=O)(=O)c1ccc(-n2c(-c3ccc(F)cc3)nc(O)c(C#N)c2=O)cc1 [Example 52, 5-cyano-2-(4-fluorophenyl)-4-hydroxy-1-[4-(methylsulfonyl)phenyl]-6-oxo-1,6-dihydropyrimidine]	> 285	
Cc1ccc(-n2c(-c3ccc(S(C)(=O)=O)cc3)nc(O)c(C#N)c2=O)cc1C [Example 53, 5-cyano-1-(3,4-dimethylphenyl)-4-hydroxy-2-[4-(methylsulfonyl)phenyl]-6-oxo-1,6-dihydropyrimidine]	> 285	

Reference: patent publication US7365069B2, “Pyrimidone derivatives” (Bexel Pharmaceuticals Inc., priority 2002, dated 2008)
